Measured values: patent US20100183745A1, “Electrochemical Device for Biocide Treatment in Agricultural Applications” (Industrie De Nora S.P.A., priority 2007, published 2010)

System: Erwinia amylovora
Experiment: SEM analysis of bacterial colonies on treated pear leaves
Type: in vivo, pear trees of white William variety
Details: leaves apparently not affected by the disease; copious bacterial colonies prior to treatment; once a day during 10 days
Excerpt: The feed vessel was loaded with a solution at neutral pH containing 1 g/l of NaCl and 2.5 g/l of KCl, and the service vessel was loaded with a tap-water stream whose flow-rate was controlled by a downstream UV probe, calibrated so as to detect the concentration of outlet hypochlorous acid by adsorption at 292 nm adjusting the same at a value comprised between 0.10 and 0.15 g/l at sprinkling stage. The outflow of electrolysis cell to the service vessel was adjusted at a flow-rate of 20 l/h.
The device regulated in this way was used for sprinkling the leaves of 50 pear trees of white William variety affected with fire blight, a disease induced by Erwinia amylovora bacterium causing stems, leaves and flowers of the plant to turn brown in localised groups. […] Each treatment was repeated once a day, during 10 subsequent days.

With `O.O.O.O.O.O=S(=O)([O-])[O-].[Cu+2]` [cupric sulphate] the “bacterial colonies on leaves by SEM analysis after the treatment” value was “substantial reduction of the phenomenon, still showed the signs of traces of bacterial colonies”.
